Reference: PMC3684770 (Free Radical Biology & Medicine, 2013)
Where two headings read alike, the source gives them in different places.

How the values were obtained:
Nrf2-ARE pathway = assay: ARE reporter assay in CHO 4xARE-TK-GFP cells (Spectrum library hits); conditions: for maximal fold induction: CHO, read-out: Fold GFP induction
Method: The Z′ score was calculated as follows Z′=1−(3SD^++3SD^−)/(Ave^+–Ave^−) where SD^+ = standard deviation of positive control wells; SD^− = standard deviation of negative control wells; Ave^+ = average fluorescence reading of positive control wells; Ave^− = average fluorescence reading of negative control wells.
Media was removed by hand and replaced (1 compound/well) with the Spectrum library diluted to 10 μM in 0.1% DMSO using a Q-bot liquid handling system (Genetix, New Milton, UK). […] The TK-GFP CHO ARE cell line was screened twice in a single point assay and the control TK-GFP CHO cell line was screened once to eliminate false positives.
The compounds were applied in triplicate to confluent cells in 96 well plates in serum free medium for 24 hours and the induction of GFP measured in a fluorescence plate reader.
In order to screen the Spectrum collection of 2000 molecules the reporter assay was optimised in […]. To assess the suitability of the assay for library screening, a Z’ score calculation was performed by treating alternate wells with vehicle (0.1% DMSO) and 10 µM Ebselen as a positive control (see calculation in Methods). […] The library was subsequently screened at a single point concentration of 10µM for every compound. Drug library dilutions and plating were performed with a Q-BOT liquid handling system and both the 4xARE-TK-GFP reporter cell line and TK-GFP control cell line were tested for their response to the compounds. Hits were identified as having data points more than three standard deviations above the background level, which was the average value of 24 wells treated with vehicle (0.1% DMSO) only. Hit compounds were checked to see if they generated a response in the control cell line, for example by non-specific activation of transcription or autofluorescence. […] The library screen was repeated once in the 4xARE –TK-CHO cell line and compounds classed as hits in both screens were taken forward for further assessment.

NSC34 cells [1] = tested on: NSC34 cells
Method: (§1) Media were then replaced with serum-free, phenol-free media for 5 h.

[2] = tested on: 1321N1 astrocyte cell line
Method: as §1

C6 astrocyte cell line [3] = tested on: C6 astrocyte cell line
Method: as §1

C6 astrocyte cell line [4] = assay: C6 oxidative stress assay (serum withdrawal, DCF); conditions: for C6 oxidative stress assay Max reduction: maximum % inhibition of DCF signal; for IC50: read-out: C6 oxidative stress assay IC50; for Emax: 24 h, read-out: C6 oxidative stress assay Max reduction; for C6 oxidative stress assay Toxic dose: minimum dose at which toxicity was observed
Method: as §1

NSC34 cells [5] = assay: NSC34 oxidative stress assay (serum withdrawal, DCF); conditions: for NSC34 oxidative stress assay Max reduction: maximum % inhibition of DCF signal, negative = prooxidant; for Emax: Mus musculus, NSC-34, 24 h, read-out: NSC34 oxidative stress assay Max reduction; for NSC34 oxidative stress assay Toxic dose: minimum dose at which toxicity was observed
Method: as §1

[6] = tested on: 1321N1 astrocyte cell line; assay: 1321N1 oxidative stress assay (serum withdrawal, DCF); conditions: for 1321N1 oxidative stress assay Max reduction: maximum % inhibition of DCF signal; for Emax: 1321-N1, 24 h, read-out: 1321N1 oxidative stress assay Max reduction; for 1321N1 oxidative stress assay Toxic dose: minimum dose at which toxicity was observed
Method: as §1

[7] = CHO ARE reporter, 7-point concentration response
[8] = 24-h preconditioning, 6-h serum withdrawal, DCF fluorescence
[9] = lowest dose at which a reduction in GFP fluorescence was observed
[10] = Homo sapiens, 1321-N1, read-out: 1321N1 oxidative stress assay IC50
[11] = average fold over baseline at the maximal response, CHO cells, 24 h

For `C[C@@H]1C(=O)O[C@H]2[C@H]1CC[C@@]1(C)C=CC(=O)[C@@]3(C)O[C@@]213` [Epoxy(4,5α)-4,5-dihydrosantonin], the “Fold GFP induction” value (Nrf2-ARE pathway) was 2.91 fold, the Toxic dose (Nrf2-ARE pathway) was 100 µM and the EC50 (Nrf2-ARE pathway; [7]) was 18.2 µM. For the same compound, the “NSC34 oxidative stress assay Toxic dose” value (NSC34 cells [1]) was 3 µM, the “1321N1 oxidative stress assay Toxic dose” value [2] was “None” and the “C6 oxidative stress assay Toxic dose” value (C6 astrocyte cell line [3]) was “None”. For the same compound, the “C6 oxidative stress assay Max reduction” value (C6 astrocyte cell line [4]) was 62%, the IC50 (C6 astrocyte cell line [4]; [8]) was 2.13 µM and the “NSC34 oxidative stress assay Max reduction” value (NSC34 cells [5]) was 0%. For the same compound, the “1321N1 oxidative stress assay Max reduction” value [6] was 63% and the IC50 ([6]; read-out: 1321N1 oxidative stress assay IC50, 24-h preconditioning, 6-h serum withdrawal, DCF fluorescence) was 0.662 µM.

For `Oc1ccc(O)cc1` [Hydroquinone, reference compound], the EC50 (Nrf2-ARE pathway; Cricetulus griseus) was 3.07 µM, the Toxic dose (Nrf2-ARE pathway; [9]) was 100 µM and the “NSC34 oxidative stress assay Toxic dose” value (NSC34 cells [1]) was “None”. For the same compound, the “1321N1 oxidative stress assay Toxic dose” value [2] was “None”, the “C6 oxidative stress assay Toxic dose” value (C6 astrocyte cell line [3]) was “None” and the Emax (C6 astrocyte cell line [4]; Rattus norvegicus, Astrocyte) was 67%. For the same compound, the IC50 (C6 astrocyte cell line [4]; Rattus norvegicus, Astrocyte) was 7.07 µM, the Emax (NSC34 cells [5]) was 0% and the Emax ([6]; Homo sapiens) was 80%. The IC50 [6, 10] was 3.38 µM.

`CC(=O)CCC(=O)O` [Levulinic acid] was tested, and the EC50 (Nrf2-ARE pathway; Cricetulus griseus) was 12 µM, the Toxic dose (Nrf2-ARE pathway; [9]) was “None” and the “NSC34 oxidative stress assay Toxic dose” value (NSC34 cells [1]) was “None”. The “1321N1 oxidative stress assay Toxic dose” value [2] was “None”, the “C6 oxidative stress assay Toxic dose” value (C6 astrocyte cell line [3]) was “None” and the Emax (C6 astrocyte cell line [4]; Rattus norvegicus, Astrocyte) was 62%. The IC50 (C6 astrocyte cell line [4]; Rattus norvegicus, Astrocyte) was 7.69 µM, the Emax (NSC34 cells [5]) was 15% and the Emax ([6]; Homo sapiens) was 58%. The IC50 [6, 10] was 3.31 µM.

Work on `C=C1C(=O)O[C@H]2[C@H]1CC/C(C)=C/CC[C@@]1(C)O[C@@H]21` [Parthenolide] yielded an EC50 (Nrf2-ARE pathway; Cricetulus griseus) greater than 100 µM, a maximal fold induction (Nrf2-ARE pathway; Cricetulus griseus, 24 h) of 2.77 and a Toxic dose (Nrf2-ARE pathway; [9]) of 100 µM. The Emax (C6 astrocyte cell line [4]; Rattus norvegicus, Astrocyte) was 81%, the IC50 (C6 astrocyte cell line [4]; Rattus norvegicus, Astrocyte) was 3.11 µM and the “C6 oxidative stress assay Toxic dose” value (C6 astrocyte cell line [4]) was “None”. The Emax (NSC34 cells [5]) was 0%, the “NSC34 oxidative stress assay Toxic dose” value (NSC34 cells [5]) was 1 µM and the Emax ([6]; Homo sapiens) was 47%. The IC50 [6, 10] was 28.4 µM and the “1321N1 oxidative stress assay Toxic dose” value [6] was “None”.

Compound `C=C(C)C1(O)OC(=O)C=C1OC` (centres unmarked) [Penicillic acid] has a Toxic dose (Nrf2-ARE pathway; Chinese hamster) of 100 µM, an EC50 (Nrf2-ARE pathway; Cricetulus griseus) of 14.9 µM and a maximal fold induction (Nrf2-ARE pathway; Cricetulus griseus, 24 h) of 2.64. The “NSC34 oxidative stress assay Toxic dose” value (NSC34 cells [1]) was “none”, the “1321N1 oxidative stress assay Toxic dose” value [2] was “none” and the “C6 oxidative stress assay Toxic dose” value (C6 astrocyte cell line [3]) was “none”. For the same compound, the Emax (C6 astrocyte cell line [4]; Rattus norvegicus, Astrocyte) was 68%, the IC50 (C6 astrocyte cell line [4]; Rattus norvegicus, Astrocyte) was 4.62 µM and the Emax (NSC34 cells [5]) was 9%. It also gave an Emax ([6]; Homo sapiens) of 45%.

`O=C(CCBr)N1CCN(C(=O)CCBr)CC1` [Pipobroman, reference compound] was tested, and the EC50 (Nrf2-ARE pathway; Cricetulus griseus) was 10 µM, the Toxic dose (Nrf2-ARE pathway; [9]) was 100 µM and the “NSC34 oxidative stress assay Toxic dose” value (NSC34 cells [1]) was “none”. The “1321N1 oxidative stress assay Toxic dose” value ([2]; human) was 10 µM, the “C6 oxidative stress assay Toxic dose” value (C6 astrocyte cell line [3]) was “none” and the Emax (C6 astrocyte cell line [4]; Rattus norvegicus, Astrocyte) was 71%. It also gave an IC50 (C6 astrocyte cell line [4]; Rattus norvegicus, Astrocyte) of 11 µM, an Emax (NSC34 cells [5]) of 30% and an Emax ([6]; Homo sapiens) of 19%. It also gave an IC50 [6, 10] of 3.16 µM.

For `CC(C)N(C(=O)CCl)c1ccccc1` [Propachlor], the EC50 (Nrf2-ARE pathway; Cricetulus griseus) was 1.49 µM, the “Fold GFP induction” value (Nrf2-ARE pathway; [11]) was 3.25 fold and the Toxic dose (Nrf2-ARE pathway; [9]) was 100 µM. The Emax (C6 astrocyte cell line [4]; Rattus norvegicus, Astrocyte) was 74%, the IC50 (C6 astrocyte cell line [4]; Rattus norvegicus, Astrocyte) was 0.645 µM and the “C6 oxidative stress assay Toxic dose” value (C6 astrocyte cell line [4]) was 10 µM. For the same compound, the Emax (NSC34 cells [5]) was 0%, the “NSC34 oxidative stress assay Toxic dose” value (NSC34 cells [5]) was 10 µM and the Emax ([6]; Homo sapiens) was 50%. The IC50 [6, 10] was 0.829 µM and the “1321N1 oxidative stress assay Toxic dose” value [6] was 10 µM.

`C=C(C)/C=C1/C=CC(=O)C(C)=C1` [Retusoquinone] gave a Toxic dose (Nrf2-ARE pathway; [9]) of 100 µM, an Emax (C6 astrocyte cell line [4]; Rattus norvegicus, Astrocyte) of 15% and an IC50 (C6 astrocyte cell line [4]; Rattus norvegicus, Astrocyte) of 2.06 µM. The “C6 oxidative stress assay Toxic dose” value (C6 astrocyte cell line [4]) was “none”, the Emax (NSC34 cells [5]) was -25% and the “NSC34 oxidative stress assay Toxic dose” value (NSC34 cells [5]) was “none”. For the same compound, the Emax ([6]; Homo sapiens) was 0% and the “1321N1 oxidative stress assay Toxic dose” value [6] was “none”.

`COc1ccc2c(c1)OC/C(=C/c1ccc(OC)c(OC)c1)C2=O` [Sappanone A trimethyl ether] was tested, and the EC50 (Nrf2-ARE pathway; Cricetulus griseus) was 3.5 µM, the maximal fold induction (Nrf2-ARE pathway; Cricetulus griseus, 24 h) was 1.99 and the Toxic dose (Nrf2-ARE pathway; [9]) was 100 µM. The Emax (C6 astrocyte cell line [4]; Rattus norvegicus, Astrocyte) was 27%, the “C6 oxidative stress assay Toxic dose” value (C6 astrocyte cell line [4]) was “none” and the Emax (NSC34 cells [5]) was -60%. The “NSC34 oxidative stress assay Toxic dose” value (NSC34 cells [5]) was “none”, the Emax ([6]; Homo sapiens) was 40% and the IC50 [6, 10] was 0.279 µM. For the same compound, the “1321N1 oxidative stress assay Toxic dose” value [6] was “none”.

For `O=C1C=C2C=C[C@@H]3C[C@@]2(O1)[C@H]1CCCCN31` [Securinine], the EC50 (Nrf2-ARE pathway; Cricetulus griseus) was 2.12 µM, the maximal fold induction (Nrf2-ARE pathway; Cricetulus griseus, 24 h) was 3 and the Toxic dose (Nrf2-ARE pathway; [9]) was 30 µM. The Emax (C6 astrocyte cell line [4]; Rattus norvegicus, Astrocyte) was 67%, the IC50 (C6 astrocyte cell line [4]; Rattus norvegicus, Astrocyte) was 0.645 µM and the “C6 oxidative stress assay Toxic dose” value (C6 astrocyte cell line [4]) was “None”. For the same compound, the Emax (NSC34 cells [5]) was 20%, the “NSC34 oxidative stress assay Toxic dose” value (NSC34 cells [5]) was “None” and the Emax ([6]; Homo sapiens) was 55%. For the same compound, the IC50 [6, 10] was 18.3 µM and the “1321N1 oxidative stress assay Toxic dose” value [6] was “None”.

Compound `COC(=O)[C@H](O)[C@H]1C(C)(C)[C@H](OC(C)=O)[C@@H]2CC3=C4CC(=O)O[C@@H](c5ccoc5)[C@]4(C)CC[C@@H]3[C@@]1(C)C2=O` [Swietenolide 3 acetate] has an EC50 (Nrf2-ARE pathway; Cricetulus griseus) of 3.5 µM, a maximal fold induction (Nrf2-ARE pathway; Cricetulus griseus, 24 h) of 2.82 and a Toxic dose (Nrf2-ARE pathway; [9]) of 100 µM. For the same compound, the Emax (C6 astrocyte cell line [4]; Rattus norvegicus, Astrocyte) was 50%, the IC50 (C6 astrocyte cell line [4]; Rattus norvegicus, Astrocyte) was 4.22 µM and the “C6 oxidative stress assay Toxic dose” value (C6 astrocyte cell line [4]) was “none”. The Emax (NSC34 cells [5]) was 0%, the “NSC34 oxidative stress assay Toxic dose” value (NSC34 cells [5]) was 0.3 µM and the Emax ([6]; Homo sapiens) was 60%. For the same compound, the “1321N1 oxidative stress assay Toxic dose” value [6] was “none”.

In the case of `CC1=CC(=O)C(C(C)C)=CC1=O` [Thymoquinone], the Toxic dose (Nrf2-ARE pathway; [9]) is reported as 30 µM, the Emax (C6 astrocyte cell line [4]; Rattus norvegicus, Astrocyte) is reported as 32% and the IC50 (C6 astrocyte cell line [4]; Rattus norvegicus, Astrocyte) is reported as 0.014 µM. For the same compound, the “C6 oxidative stress assay Toxic dose” value (C6 astrocyte cell line [4]) was “None”, the Emax (NSC34 cells [5]) was 0% and the “NSC34 oxidative stress assay Toxic dose” value (NSC34 cells [5]) was “None”. The Emax ([6]; Homo sapiens) was 25%, the IC50 [6, 10] was 11 µM and the “1321N1 oxidative stress assay Toxic dose” value [6] was “None”.

“Methyl-7-deshydroxypyrogallin-4-carboxylate” was tested, and the EC50 (Nrf2-ARE pathway; [7]) was greater than 100 µM, the “Fold GFP induction” value (Nrf2-ARE pathway; [11]) was 2.83 fold and the Toxic dose (Nrf2-ARE pathway; [9]) was 100 µM. The “C6 oxidative stress assay Max reduction” value (C6 astrocyte cell line [4]) was 70%, the “C6 oxidative stress assay Toxic dose” value (C6 astrocyte cell line [4]) was “none” and the IC50 (C6 astrocyte cell line [4]; [8]) was 2.95 µM. The “NSC34 oxidative stress assay Max reduction” value (NSC34 cells [5]) was -23%, the “NSC34 oxidative stress assay Toxic dose” value (NSC34 cells [5]) was 0.3 µM and the “1321N1 oxidative stress assay Max reduction” value [6] was 45%. The “1321N1 oxidative stress assay Toxic dose” value [6] was “none”.
